Measurements taken from US10294202B2, “Pyrrolidinones as herbicides” (FMC Corporation, priority 2013, dated 2019).

Experiments:
[1] = tested on: barnyardgrass; assay: Test A pre-/postemergence herbicide test; format: in vivo, Echinochloa crus-galli
In short: (§1)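 Greenhouse pot test with pre- and postemergence application of surfactant-containing solvent formulations. Postemergence plants were 2–10 cm, one- to two-leaf stage. Response scored visually after ~10 days, 0 (no effect) to 100 (complete control).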

[2] = tested on: crabgrass, large; assay: Test A pre-/postemergence herbicide test; format: in vivo, Digitaria sanguinalis; conditions: for Plant response rating, Crabgrass, Large: 0 to 100 scale
In short: as §1

[3] = tested on: giant foxtail; assay: Test A pre-/postemergence herbicide test; format: in vivo, Setaria faberii; conditions: for Plant response rating, Foxtail, Giant: 0 to 100 scale
In short: as §1

[4] = tested on: morningglory; assay: Test A pre-/postemergence herbicide test; format: in vivo, Ipomoea spp.; conditions: for Plant response rating, Morningglory: 0 to 100 scale
In short: as §1

[5] = tested on: pigweed; assay: Test A pre-/postemergence herbicide test; format: in vivo, Amaranthus retroflexus; conditions: for Plant response rating, Pigweed: 0 to 100 scale
In short: as §1

[6] = tested on: velvetleaf; assay: Test A pre-/postemergence herbicide test; format: in vivo, Abutilon theophrasti; conditions: for Plant response rating, Velvetleaf: 0 to 100 scale
In short: as §1

[7] = tested on: wheat; assay: Test A pre-/postemergence herbicide test; format: in vivo, Triticum aestivum; conditions: for Plant response rating, Wheat: 0 to 100 scale
In short: as §1

[8] = tested on: corn; assay: Test A pre-/postemergence herbicide test; format: in vivo, Zea mays; conditions: for Plant response rating, Corn: 0 to 100 scale
In short: as §1

[9] = tested on: rice; assay: Test B flooded paddy test; format: in vivo, Oryza sativa; conditions: Flood, scale of 0 to 100 where 0 is no effect and 100 is complete control
Experimental: (§2) Plant species in the flooded paddy test selected from rice (Oryza sativa), sedge, umbrella (small-flower umbrella sedge, Cyperus difformis), ducksalad (Heteranthera limosa), and barnyardgrass (Echinochloa crus-galli) were grown to the 2-leaf stage for testing. At time of treatment, test pots were flooded to 3 cm above the soil surface, treated by application of test compounds directly to the paddy water, and then maintained at that water depth for the duration of the test. Treated plants and controls were maintained in a greenhouse for 13 to 15 days, after which time all species were compared to controls and visually evaluated. Plant response ratings, summarized in Table B, are based on a scale of 0 to 100 where 0 is no effect and 100 is complete control. A dash (-) response means no test result.

[10] = tested on: sedge, umbrella; assay: Test B flooded paddy test; format: in vivo, Cyperus difformis; conditions: Flood, scale of 0 to 100 where 0 is no effect and 100 is complete control
Experimental: as §2

[11] = tested on: ducksalad; assay: Test B flooded paddy test; format: in vivo, Heteranthera limosa; conditions: Flood, scale of 0 to 100 where 0 is no effect and 100 is complete control
Experimental: as §2

[12] = tested on: barnyardgrass; assay: Test B flooded paddy test; format: in vivo, Echinochloa crus-galli; conditions: Flood, scale of 0 to 100 where 0 is no effect and 100 is complete control
Experimental: as §2

[13] = tested on: kochia; assay: Test A pre-/postemergence herbicide test; format: in vivo, Kochia scoparia; conditions: for Plant response rating, Kochia: 0 to 100 scale
In short: as §1

[14] = tested on: ragweed; assay: Test A pre-/postemergence herbicide test; format: in vivo, Ambrosia elatior; conditions: for Plant response rating, Ragweed: 0 to 100 scale
In short: as §1

[15] = tested on: ryegrass, Italian; assay: Test A pre-/postemergence herbicide test; format: in vivo, Lolium multiflorum; conditions: for Plant response rating, Ryegrass, Italian: 0 to 100 scale
In short: as §1

[16] = tested on: blackgrass; assay: Test A postemergence herbicide test; format: in vivo, Alopecurus myosuroides; conditions: for Plant response rating, Blackgrass: 125 g ai/ha, 0 to 100 scale, 0 is no effect, 100 is complete control; for Blackgrass plant response rating (0 to 100 scale, 0 is no effect, 100 is complete control): 500 g ai/ha
In short: (§3)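 Injury was rated visually about 10 days after treatment on a 0 (no effect) to 100 (complete control) scale, compared with untreated plants. Test chemicals were sprayed postemergence onto greenhouse plants 2–10 cm high at one to two leaves, grown in a loam–sand blend.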

[17] = tested on: galium; assay: Test A postemergence herbicide test; format: in vivo, Galium aparine; conditions: for Plant response rating, Galium: 125 g ai/ha, 0 to 100 scale, 0 is no effect, 100 is complete control; for Galium plant response rating (0 to 100 scale, 0 is no effect, 100 is complete control): 500 g ai/ha
In short: as §3

[18] = 125 g ai/ha, visual rating, 0 to 100 scale, 0 no effect, 100 complete control, approximately 10 days, preemergence
[19] = Postemergence, 125 g ai/ha, 0 to 100 scale, 0 is no effect, 100 is complete control
[20] = preemergence, 500 g ai/ha, 0 to 100 scale, 0 is no effect and 100 is complete control
[21] = 125 g ai/ha, visual rating, 0 no effect, 100 complete control, approximately 10 days, preemergence
[22] = Postemergence, 125 g ai/ha, 0 is no effect, 100 is complete control
[23] = preemergence, 500 g ai/ha, 0 is no effect and 100 is complete control

## COc1ccc(C2CNC(=O)C2C(=O)Nc2cccc(F)c2F)cc1F (racemic) [Compound 198]
[1]; [18]
  Plant response rating, Barnyardgrass: 50
[1]; [19]
  Plant response rating, Barnyardgrass: 50
[1]; Postemergence, 500 g ai/ha
  Barnyardgrass plant response rating (0 to 100 scale, 0 is no effect, 100 is complete control): 80
[1]; [20]
  Plant response rating, Barnyardgrass: 90
[2]; [21]
  Plant response rating, Crabgrass, Large: 90
[2]; [22]
  Plant response rating, Crabgrass, Large: 50
[2]; Postemergence, 500 g ai/ha
  Crabgrass, Large plant response rating (0 to 100 scale, 0 is no effect, 100 is complete control): 80
[2]; [23]
  Plant response rating, Crabgrass, Large: 100
[3]; [21]
  Plant response rating, Foxtail, Giant: 50
[3]; [22]
  Plant response rating, Foxtail, Giant: 10
[3]; Postemergence, 500 g ai/ha
  Foxtail, Giant plant response rating (0 to 100 scale, 0 is no effect, 100 is complete control): 60
[3]; [23]
  Plant response rating, Foxtail, Giant: 80
[4]; [21]
  Plant response rating, Morningglory: 0
[4]; [22]
  Plant response rating, Morningglory: 0
[4]; Postemergence, 500 g ai/ha
  Morningglory plant response rating (0 to 100 scale, 0 is no effect, 100 is complete control): 0
[4]; [23]
  Plant response rating, Morningglory: 0
[5]; [21]
  Plant response rating, Pigweed: 0
[5]; [22]
  Plant response rating, Pigweed: 0
[5]; Postemergence, 500 g ai/ha
  Pigweed plant response rating (0 to 100 scale, 0 is no effect, 100 is complete control): 0
[5]; [23]
  Plant response rating, Pigweed: 0
[6]; [21]
  Plant response rating, Velvetleaf: 0
[6]; [22]
  Plant response rating, Velvetleaf: 0
[6]; Postemergence, 500 g ai/ha
  Velvetleaf plant response rating (0 to 100 scale, 0 is no effect, 100 is complete control): 0
[6]; [23]
  Plant response rating, Velvetleaf: 0
[7]; [21]
  Plant response rating, Wheat: 0
[7]; [22]
  Plant response rating, Wheat: 0
[7]; Postemergence, 500 g ai/ha
  Wheat plant response rating (0 to 100 scale, 0 is no effect, 100 is complete control): 0
[7]; [23]
  Plant response rating, Wheat: 0
[8]; [21]
  Plant response rating, Corn: 0
[8]; [22]
  Plant response rating, Corn: 0
[8]; Postemergence, 500 g ai/ha
  Corn plant response rating (0 to 100 scale, 0 is no effect, 100 is complete control): 0
[8]; [23]
  Plant response rating, Corn: 0
[9]; 250 g ai/ha
  Plant response rating, Rice: 0
[9]; 1000 g ai/ha
  Plant response rating, Rice: 15
[10]; 250 g ai/ha
  Plant response rating, Sedge, Umbrella: 0
[10]; 1000 g ai/ha
  Plant response rating, Sedge, Umbrella: 0
[11]; 250 g ai/ha
  Plant response rating, Ducksalad: 70
[11]; 1000 g ai/ha
  Plant response rating, Ducksalad: 95
[12]; 250 g ai/ha
  Plant response rating, Barnyardgrass: 0
[12]; 1000 g ai/ha
  Plant response rating, Barnyardgrass: 65

## COc1ccc(NC(=O)C2C(=O)NCC2c2cccc(C(F)(F)F)c2)cc1F (racemic) [Compound 188]
[1]; [18]
  Plant response rating, Barnyardgrass: 0
[1]; [19]
  Plant response rating, Barnyardgrass: 0
[1]; Postemergence, 500 g ai/ha
  Barnyardgrass plant response rating (0 to 100 scale, 0 is no effect, 100 is complete control): 0
[1]; [20]
  Plant response rating, Barnyardgrass: 0
[13]; [21]
  Plant response rating, Kochia: 0
[13]; [22]
  Plant response rating, Kochia: 0
[13]; Postemergence, 500 g ai/ha
  Kochia plant response rating (0 to 100 scale, 0 is no effect, 100 is complete control): 0
[13]; [23]
  Plant response rating, Kochia: 0
[14]; [21]
  Plant response rating, Ragweed: 0
[14]; [22]
  Plant response rating, Ragweed: 0
[14]; Postemergence, 500 g ai/ha
  Ragweed plant response rating (0 to 100 scale, 0 is no effect, 100 is complete control): 0
[14]; [23]
  Plant response rating, Ragweed: 0
[15]; [21]
  Plant response rating, Ryegrass, Italian: 0
[15]; [22]
  Plant response rating, Ryegrass, Italian: 0
[15]; Postemergence, 500 g ai/ha
  Ryegrass, Italian plant response rating (0 to 100 scale, 0 is no effect, 100 is complete control): 0
[15]; [23]
  Plant response rating, Ryegrass, Italian: 0
[3]; [21]
  Plant response rating, Foxtail, Giant: 0
[3]; [22]
  Plant response rating, Foxtail, Giant: 0
[3]; Postemergence, 500 g ai/ha
  Foxtail, Giant plant response rating (0 to 100 scale, 0 is no effect, 100 is complete control): 0
[3]; [23]
  Plant response rating, Foxtail, Giant: 0
[5]; [21]
  Plant response rating, Pigweed: 0
[5]; [22]
  Plant response rating, Pigweed: 0
[5]; Postemergence, 500 g ai/ha
  Pigweed plant response rating (0 to 100 scale, 0 is no effect, 100 is complete control): 0
[5]; [23]
  Plant response rating, Pigweed: 0
[7]; [22]
  Plant response rating, Wheat: 0
[7]; Postemergence, 500 g ai/ha
  Wheat plant response rating (0 to 100 scale, 0 is no effect, 100 is complete control): 0
[8]; [22]
  Plant response rating, Corn: 0
[8]; Postemergence, 500 g ai/ha
  Corn plant response rating (0 to 100 scale, 0 is no effect, 100 is complete control): 0
[16]
  Plant response rating, Blackgrass: 0
  Blackgrass plant response rating (0 to 100 scale, 0 is no effect, 100 is complete control): 0
[17]
  Plant response rating, Galium: 0
  Galium plant response rating (0 to 100 scale, 0 is no effect, 100 is complete control): 0

## O=C1NCC(c2cc(F)cc(F)c2)C1C(=O)Nc1ccc(F)cc1F (racemic) [Compound 156]
[1]; [18]
  Plant response rating, Barnyardgrass: 90
[1]; [19]
  Plant response rating, Barnyardgrass: 80
[1]; Postemergence, 500 g ai/ha
  Barnyardgrass plant response rating (0 to 100 scale, 0 is no effect, 100 is complete control): 80
[1]; preemergence, 500 g ai/ha, 0 to 100 scale (0 no effect, 100 complete control)
  Plant response rating, Barnyardgrass: 90
[13]; [21]
  Plant response rating, Kochia: 20
[13]; [22]
  Plant response rating, Kochia: 0
[13]; Postemergence, 500 g ai/ha
  Kochia plant response rating (0 to 100 scale, 0 is no effect, 100 is complete control): 20
[13]; [23]
  Plant response rating, Kochia: 40
[14]; [21]
  Plant response rating, Ragweed: 0
[14]; [22]
  Plant response rating, Ragweed: 0
[14]; Postemergence, 500 g ai/ha
  Ragweed plant response rating (0 to 100 scale, 0 is no effect, 100 is complete control): 30
[14]; [23]
  Plant response rating, Ragweed: 0
[15]; [21]
  Plant response rating, Ryegrass, Italian: 0
[15]; [22]
  Plant response rating, Ryegrass, Italian: 20
[15]; Postemergence, 500 g ai/ha
  Ryegrass, Italian plant response rating (0 to 100 scale, 0 is no effect, 100 is complete control): 30
[15]; [23]
  Plant response rating, Ryegrass, Italian: 30
[3]; [21]
  Plant response rating, Foxtail, Giant: 90
[3]; [22]
  Plant response rating, Foxtail, Giant: 80
[3]; Postemergence, 500 g ai/ha
  Foxtail, Giant plant response rating (0 to 100 scale, 0 is no effect, 100 is complete control): 80
[3]; preemergence, 500 g ai/ha
  Plant response rating, Foxtail, Giant: 90
[5]; [21]
  Plant response rating, Pigweed: 0
[5]; [22]
  Plant response rating, Pigweed: 0
[5]; Postemergence, 500 g ai/ha
  Pigweed plant response rating (0 to 100 scale, 0 is no effect, 100 is complete control): 20
[5]; [23]
  Plant response rating, Pigweed: 0
[7]; [22]
  Plant response rating, Wheat: 0
[7]; Postemergence, 500 g ai/ha
  Wheat plant response rating (0 to 100 scale, 0 is no effect, 100 is complete control): 40
[8]; [22]
  Plant response rating, Corn: 20
[8]; Postemergence, 500 g ai/ha
  Corn plant response rating (0 to 100 scale, 0 is no effect, 100 is complete control): 30
[16]
  Plant response rating, Blackgrass: 0
  Blackgrass plant response rating (0 to 100 scale, 0 is no effect, 100 is complete control): 20
[17]
  Plant response rating, Galium: 20
  Galium plant response rating (0 to 100 scale, 0 is no effect, 100 is complete control): 30
